Laboratory results reported in PubChem BioAssay (NCI).
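Five concentrations, 48 hours, 96-well plates. At the GI50, growth is halved. Definition used: TGI = concentration required for complete inhibition of growth.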

What was measured:
Assay in all cases: DTP human tumour cell line panel, 48 h
U251 CNS = test system: U251 CNS
UO-31 renal = test system: UO-31 renal
UACC-62 melanoma = test system: UACC-62 melanoma
SR leukemia = test system: SR leukemia
HT29 colon = test system: HT29 colon
HOP-92 NSCLC = test system: HOP-92 NSCLC
HCT-15 colon = test system: HCT-15 colon
SN12C renal = test system: SN12C renal
MDA-MB-231 breast = test system: MDA-MB-231 breast
DU-145 prostate = test system: DU-145 prostate
EKVX NSCLC = test system: EKVX NSCLC
SW-620 colon = test system: SW-620 colon
CAKI-1 renal = test system: CAKI-1 renal
NCI-H23 lung = test system: NCI-H23 lung
NCI/ADR-RES ovarian = test system: NCI/ADR-RES ovarian
NCI-H522 lung = test system: NCI-H522 lung
SK-MEL-2 melanoma = test system: SK-MEL-2 melanoma
MALME-3M melanoma = test system: MALME-3M melanoma
786-0 renal = test system: 786-0 renal
A549 NSCLC = test system: A549 NSCLC
RPMI-8226 leukemia = test system: RPMI-8226 leukemia
LOX IMVI melanoma = test system: LOX IMVI melanoma
ACHN renal = test system: ACHN renal
M14 melanoma = test system: M14 melanoma
SK-MEL-28 melanoma = test system: SK-MEL-28 melanoma
SK-OV-3 ovarian = test system: SK-OV-3 ovarian
HS 578T breast = test system: HS 578T breast
RXF 393 renal = test system: RXF 393 renal
COLO 205 colon = test system: COLO 205 colon
HCC-2998 colon = test system: HCC-2998 colon
K-562 leukemia = test system: K-562 leukemia
IGROV1 ovarian = test system: IGROV1 ovarian
BT-549 breast = test system: BT-549 breast
MOLT-4 leukemia = test system: MOLT-4 leukemia
HCT-116 colon = test system: HCT-116 colon
A498 renal = test system: A498 renal
T-47D breast = test system: T-47D breast
OVCAR-5 ovarian = test system: OVCAR-5 ovarian
HL-60(TB) leukemia = test system: HL-60(TB) leukemia
MDA-MB-435 = test system: MDA-MB-435
SK-MEL-5 melanoma = test system: SK-MEL-5 melanoma
CCRF-CEM leukemia = test system: CCRF-CEM leukemia
PC-3 prostate = test system: PC-3 prostate
MCF7 breast = test system: MCF7 breast
OVCAR-8 ovarian = test system: OVCAR-8 ovarian
SNB-19 CNS = test system: SNB-19 CNS
TK-10 renal = test system: TK-10 renal
OVCAR-3 ovarian = test system: OVCAR-3 ovarian
SF-539 CNS = test system: SF-539 CNS
HOP-62 NSCLC = test system: HOP-62 NSCLC
SF-295 CNS = test system: SF-295 CNS
OVCAR-4 ovarian = test system: OVCAR-4 ovarian
NCI-H460 lung = test system: NCI-H460 lung
KM12 colon = test system: KM12 colon
SF-268 CNS = test system: SF-268 CNS
SNB-75 CNS = test system: SNB-75 CNS
UACC-257 melanoma = test system: UACC-257 melanoma

Q: What does the source list for `c1cnn2ncc(-c3ccnc(Nc4ccc5c(c4)OCCO5)n3)c2c1`?
A: GI50 (U251 CNS): 77.8 nM; TGI (U251 CNS): 2690 nM; GI50 (UO-31 renal): 91.7 nM; TGI (UO-31 renal): > 25000 nM; GI50 (UACC-62 melanoma): 47.5 nM; TGI (UACC-62 melanoma): 113 nM; GI50 (SR leukemia): 46.6 nM; GI50 (HT29 colon): 69.1 nM; TGI (HT29 colon): 358 nM; GI50 (HOP-92 NSCLC): 59.3 nM; TGI (HOP-92 NSCLC): 162 nM; GI50 (HCT-15 colon): 86.3 nM; TGI (HCT-15 colon): > 25000 nM; GI50 (SN12C renal): 87.5 nM; TGI (SN12C renal): > 25000 nM; GI50 (MDA-MB-231 breast): 91.4 nM; TGI (MDA-MB-231 breast): > 25000 nM; GI50 (DU-145 prostate): 84.4 nM; TGI (DU-145 prostate): 1450 nM; GI50 (EKVX NSCLC): 99.7 nM; TGI (EKVX NSCLC): 1130 nM; GI50 (SW-620 colon): 78.6 nM; TGI (SW-620 colon): 383 nM; GI50 (CAKI-1 renal): 77.3 nM; TGI (CAKI-1 renal): > 8780 nM; GI50 (NCI-H23 lung): 69.2 nM; TGI (NCI-H23 lung): 286 nM; GI50 (NCI/ADR-RES ovarian): 78.1 nM; TGI (NCI/ADR-RES ovarian): 1650 nM; GI50 (NCI-H522 lung): 116 nM; TGI (NCI-H522 lung): 592 nM; GI50 (SK-MEL-2 melanoma): 48.3 nM; TGI (SK-MEL-2 melanoma): 121 nM; GI50 (MALME-3M melanoma): 83.3 nM; TGI (MALME-3M melanoma): 276 nM; GI50 (786-0 renal): 76.4 nM; TGI (786-0 renal): > 25000 nM; GI50 (A549 NSCLC): 75.3 nM; TGI (A549 NSCLC): 3070 nM; GI50 (RPMI-8226 leukemia): 78.3 nM; TGI (RPMI-8226 leukemia): 388 nM; GI50 (LOX IMVI melanoma): 39.2 nM; TGI (LOX IMVI melanoma): > 25000 nM; GI50 (ACHN renal): 54.9 nM; TGI (ACHN renal): > 25000 nM; GI50 (M14 melanoma): 69.9 nM; TGI (M14 melanoma): 221 nM; GI50 (SK-MEL-28 melanoma): 54.4 nM; TGI (SK-MEL-28 melanoma): 199 nM; GI50 (SK-OV-3 ovarian): 178 nM; TGI (SK-OV-3 ovarian): > 25000 nM; GI50 (HS 578T breast): 74.7 nM; TGI (HS 578T breast): 323 nM; GI50 (RXF 393 renal): 53.5 nM; TGI (RXF 393 renal): 137 nM; GI50 (COLO 205 colon): 47.3 nM; TGI (COLO 205 colon): 107 nM; GI50 (HCC-2998 colon): 91.1 nM; TGI (HCC-2998 colon): 514 nM; GI50 (K-562 leukemia): 285 nM; TGI (K-562 leukemia): > 25000 nM; GI50 (IGROV1 ovarian): 81.5 nM; TGI (IGROV1 ovarian): > 25000 nM; GI50 (BT-549 breast): 58.8 nM; TGI (BT-549 breast): 200 nM; GI50 (MOLT-4 leukemia): 66.4 nM; TGI (MOLT-4 leukemia): 622 nM; GI50 (HCT-116 colon): 53.3 nM; TGI (HCT-116 colon): 1040 nM; GI50 (A498 renal): 49.2 nM; TGI (A498 renal): 128 nM; GI50 (T-47D breast): 84 nM; TGI (T-47D breast): 495 nM; GI50 (OVCAR-5 ovarian): 86.6 nM; TGI (OVCAR-5 ovarian): > 25000 nM; GI50 (HL-60(TB) leukemia): 42.3 nM; TGI (HL-60(TB) leukemia): 155 nM; GI50 (MDA-MB-435): 81.3 nM; TGI (MDA-MB-435): 516 nM; GI50 (SK-MEL-5 melanoma): 65.1 nM; TGI (SK-MEL-5 melanoma): 632 nM; GI50 (CCRF-CEM leukemia): 87.9 nM; TGI (CCRF-CEM leukemia): > 25000 nM; GI50 (PC-3 prostate): 95.5 nM; TGI (PC-3 prostate): > 25000 nM; GI50 (MCF7 breast): 79.7 nM; TGI (MCF7 breast): > 25000 nM; GI50 (OVCAR-8 ovarian): 68.7 nM; TGI (OVCAR-8 ovarian): > 25000 nM; GI50 (SNB-19 CNS): 88.2 nM; TGI (SNB-19 CNS): > 25000 nM; GI50 (TK-10 renal): 68.5 nM; TGI (TK-10 renal): 224 nM; GI50 (OVCAR-3 ovarian): 54.8 nM; TGI (OVCAR-3 ovarian): 142 nM; GI50 (SF-539 CNS): 67.9 nM; TGI (SF-539 CNS): 222 nM; GI50 (HOP-62 NSCLC): 95.8 nM; TGI (HOP-62 NSCLC): > 25000 nM; GI50 (SF-295 CNS): 79.9 nM; TGI (SF-295 CNS): 987 nM; GI50 (OVCAR-4 ovarian): 269 nM; TGI (OVCAR-4 ovarian): > 25000 nM; GI50 (NCI-H460 lung): 73.1 nM; TGI (NCI-H460 lung): 258 nM; GI50 (KM12 colon): 70 nM; TGI (KM12 colon): 303 nM; GI50 (SF-268 CNS): 68.7 nM; TGI (SF-268 CNS): 311 nM; GI50 (SNB-75 CNS): 67.1 nM; TGI (SNB-75 CNS): 173 nM; GI50 (UACC-257 melanoma): 67.1 nM; TGI (UACC-257 melanoma): 198 nM
